Laboratory results: US9399627B2, “Substituted macrocyclic compounds having proteasome inhibitory activity” (THE REGENTS OF THE UNIVERSITY OF CALIFORNIA, priority 2012, dated 2016)

Legend:
OVCAR-5 = assay: NCI 60-cell screen dose-response study, OVCAR-5; assay type: cell-based; details: Homo sapiens, dose-response study in triplicate, most sensitive cell line
Method: (§1) TIR-199 activity in inhibiting cancer cell growth was tested in a National Cancer Institute (“NCI”) 60-cell screen in triplicate (see FIGS. 3-14).
(§2) The NCI 60-cell screens were initially tested with 10 μM dose of TIR-199. […] Due to the initial results being so promising, a full dose-response study was performed in triplicate with the NCI cell lines.

[1] = system: multiple myeloma cell lines; assay: Studies with multiple myeloma cell lines; assay type: cell-based
60 cancerous cell lines = assay: NCI 60-cell screen; assay type: cell-based
Method: as §1, §2

RXF 393 renal cancer = assay: NCI 60-cell screen dose-response study, RXF 393; assay type: cell-based
Method: as §1, §2

BT-549 breast cancer = assay: NCI 60-cell screen dose-response study, BT-549; assay type: cell-based
Method: as §1, §2

[2] = system: NCI-H226 lung cancer line; assay: NCI 60-cell screen dose-response study, NCI-H226; assay type: cell-based
Method: as §1, §2

cancerous cell lines = assay: Confirmatory in vitro cell-based screens; details: confirmatory in-vitro experiments in various laboratories
TK-10 renal cancer = assay: NCI 60-cell screen dose-response study, TK-10; assay type: cell-based
Method: as §1, §2

HCC-2998 colon cancer = assay: NCI 60-cell screen dose-response study, HCC-2998; assay type: cell-based
Method: as §1, §2

PC3 prostate cancer = assay: NCI 60-cell screen dose-response study, PC3; assay type: cell-based
Method: as §1, §2

## CCCCCCCCCCCCNC(=O)N[C@H](C(=O)N[C@H]1/C=C/CCNC(=O)/C=C/[C@H](C)NC1=O)C(C)C [TIR-199]
OVCAR-5
  IC50: 10 nM
[1]
  potency compared with bortezomib: nearly as potent as the FDA approved proteasome inhibitor, bortezomib
60 cancerous cell lines; 60 cancerous cell lines, varying log10 amounts (FIG. 3)
  growth suppression and/or apoptosis induction in dose response study: suppressed the growth and/or induced apoptosis in every cancerous cell line
60 cancerous cell lines; initial single dose, 10 μM
  suppression of cancer cell growth: effectively suppressed cancer cell growth universally across the cell lines
60 cancerous cell lines; kidney (renal) cancer lines
  effectiveness on kidney cancer activity: surprisingly potent
RXF 393 renal cancer
  sensitivity of cell line: particularly sensitive
BT-549 breast cancer
  sensitivity of cell line: particularly sensitive
[2]
  potency against cell line: Particular potency
Cancerous cell lines
  potency against cancerous cell lines: low nanomolar potency
TK-10 renal cancer
  sensitivity of cell line: particularly sensitive
HCC-2998 colon cancer
  sensitivity of cell line: particularly sensitive
PC3 prostate cancer
  sensitivity of cell line: particularly sensitive
